We go through five compounds from ChEMBL document CHEMBL3046345, “Synthesis of novel pyrazole and pyrimidine derivatives bearing sulfonamide moiety as antitumor and radiosensitizing agents” (Med Chem Res, 2012).

Test [1] concerns HepG2. In words: Potentiation of gamma-irradiation-induced cytotoxicity against Homo sapiens (human) HepG2 cells at 40 uM relative to control. The test is classed as functional.
In test [2] the test system is HepG2. In words: Potentiation of gamma-irradiation-induced cytotoxicity against Homo sapiens (human) HepG2 cells at 25 uM relative to control. The test is classed as functional.
In test [3] the test system is HepG2. In words: Anticancer activity against Homo sapiens (human) HepG2 cells after 48 hr by SRB assay. The test is classed as functional, cell-based. The following applies: HepG2, 48 h.
Test [4] has as its system HepG2. Description: Cytotoxicity against Homo sapiens (human) HepG2 cells at 12.5 uM relative to control. The test is classed as functional.
Test [5] relates to HepG2. In words: Cytotoxicity against Homo sapiens (human) HepG2 cells at 25 uM relative to control. Type of test: functional.
Test [6] has as its system HepG2. Description: Cytotoxicity against Homo sapiens (human) HepG2 cells at 5 uM relative to control. Type of test: functional.
A further test has as its system MCF7. In words: Anticancer activity against Homo sapiens (human) MCF7 cells after 48 hr by SRB assay. Type of test: functional, cell-based. Conditions: MCF7, 48 h.
Test [7] deals with HepG2. Description: Cytotoxicity against Homo sapiens (human) HepG2 cells at 40 uM relative to control. The test is classed as functional.
The subject of test [8] is HepG2. Description: Potentiation of gamma-irradiation-induced cytotoxicity against Homo sapiens (human) HepG2 cells at 5 uM relative to control. The test is classed as functional.
Test [9] relates to HepG2. In words: Potentiation of gamma-irradiation-induced cytotoxicity against Homo sapiens (human) HepG2 cells at 12.5 uM relative to control. The test is classed as functional.

One may read the IC50 as the concentration needed to halve the response being measured. A high value points to weaker potency.

Regarding `Cc1cc(C)nc(NS(=O)(=O)c2ccc(N/C=C3/C(=N)N(c4ccccc4)N=C3N)cc2)n1`, the Activity in the test with HepG2 [1] is 88.4%; in the test with HepG2 [2] it was 92.9%; in the test on HepG2 [4], 64.14%; in the test with HepG2 [5], 74.3%; with HepG2 [6], 47.94%; in the test with HepG2 [7], 80.7%. The Activity is 75.69% in the test on HepG2 [8] and 86% in the test on HepG2 [9]. Also, the IC50 in the test with HepG2 [3] amounted to 3.76 µM; with MCF7, 6.98 µM.

As to `NC1=NN(c2ccccc2)C(=O)/C1=C/Nc1ccc(S(=O)(=O)Nc2cnc3ccccc3n2)cc1`, the Activity in the test with HepG2 [1] was determined as 88.5%; in the test with HepG2 [2], 93.5%; in the test on HepG2 [4], 65.3%; in the test on HepG2 [5] it was 76.15%; with HepG2 [6], 40.36%; in the test on HepG2 [7], 79.39%. For the same compound, the Activity with HepG2 [8] is on record as 57.1%; with HepG2 [9], 77.8%. Besides, the IC50 in the test on HepG2 [3] came out at 3.21 µM; with MCF7, 6.71 µM.

`NC1=NN(c2ccccc2)C(=O)/C1=C/Nc1ccc(S(=O)(=O)Nc2ccccn2)cc1`: the Activity with HepG2 [1] is given as 91.8%; in the test with HepG2 [2], 76.7%; in the test with HepG2 [4] it was 57.82%; in the test on HepG2 [5] it was 66.9%; in the test with HepG2 [6] it was 39.49%; in the test with HepG2 [7] it was 80.2%. For the same compound, the Activity is on record as 62.1% in the test with HepG2 [8] and 80.8% in the test with HepG2 [9]. For the same compound, the IC50 with HepG2 [3] is 3.49 µM; in the test on MCF7, 5.1 µM.

Take `N=C1NN=C(N)/C1=C\Nc1ccc(S(=O)(=O)Nc2cnc3ccccc3n2)cc1`: the Activity in the test on HepG2 [1] was determined as 88.2%; in the test on HepG2 [2] it was 80.6%; in the test with HepG2 [4], 55.27%; in the test on HepG2 [5], 73.2%; with HepG2 [6] it was 18.15%; in the test on HepG2 [7], 85.8%. In addition, the Activity in the test on HepG2 [8] was 53.6%; in the test on HepG2 [9], 67%. The IC50 with HepG2 [3] was 3.22 µM; with MCF7, 7.78 µM.

Regarding `Cc1cc(C)nc(NS(=O)(=O)c2ccc(-n3cc(C#N)c(=O)n(-c4ccccc4)c3=S)cc2)n1`, the Activity worked out at 87.3% in the test with HepG2 [1]; 77.5% in the test with HepG2 [2]; 49.12% in the test on HepG2 [4]; 62.2% in the test on HepG2 [5]; 19.98% with HepG2 [6]; 79.6% with HepG2 [7]. For the same compound, the Activity in the test on HepG2 [8] is 47.2%; in the test with HepG2 [9], 70.8%. Moreover, the figures for the IC50 in the test on HepG2 [3] and in the test on MCF7 were 3.49 µM and 5.63 µM, respectively.
